Reference: the RepoRT retention time repository (doi:10.1016/j.scitotenv.2015.08.078)

Test: RP, Waters ACQUITY UPLC BEH C18, 100 × 2.1 mm, 1.7 µm, 0.3 mL/min, estimated dead time 0.73 min; A: water + 0.1% formic acid, pH 3; B: methanol + 0.1% formic acid, pH 3; gradient (min/%B) 0/10 14/90 16/90 18/10
Details: stereoisomer not certain

Compound | LC retention time
CCCC(Cn1cncn1)c1ccc(Cl)cc1Cl (configuration not stated) [Penconazole] | 11.6 min
CC(C)(SC(=O)N1CCCCC1)c1ccccc1 [Dimepiperate] | 12.3 min
COC(=O)Nc1nc2ccccc2[nH]1 [Carbendazim] | 3.42 min
CCCCC(C#N)(Cn1cncn1)c1ccc(Cl)cc1 (configuration not stated) [Myclobutanil] | 10.6 min
CC(CN1c2ccccc2Sc2ccccc21)N(C)C (configuration not stated) [Promethazine] | 9.06 min
N#Cc1c[nH]cc1-c1cccc(Cl)c1Cl [Fenpiclonil] | 9.52 min
COc1cc2c(c3oc(=O)c4c(c13)CCOC4=O)C1CCOC1O2 (configuration not stated) [Aflatoxin G2] | 6.71 min
COC(=O)Nc1nc2ccc(S(=O)c3ccccc3)cc2[nH]1 (configuration not stated) [Oxfendazole] | 7.31 min
CN(C)C1C(=O)C(C(N)=O)=C(O)C2(O)C(=O)C3=C(O)c4c(O)cccc4C(C)(O)C3CC12 (configuration not stated) [Tetracycline] | 4.37 min
O=C(NC(=O)c1c(F)cccc1F)Nc1ccc(OC(F)(F)C(F)OC(F)(F)F)c(Cl)c1 (configuration not stated) [Novaluron] | 12.6 min
CCc1cccc(C)c1N(C(=O)CCl)C(C)COC (configuration not stated) [Metolachlor] | 11.7 min
COC(=O)C(C)Oc1ccc(Oc2cnc3cc(Cl)ccc3n2)cc1 (configuration not stated) [Quizalofop methyl] | 12.1 min
O=C1CN(N=Cc2ccc([N+](=O)[O-])o2)C(=O)N1 [Nitrofurantoin] | 2.83 min
CCN(C(=O)SCc1ccccc1)C(C)C(C)C (configuration not stated) [Esprocarb] | 12.8 min
CN1CCN(c2c(F)cc3c(=O)c(C(=O)O)cn4c3c2OCN4C)CC1 [Marbofloxacin] | 2.84 min
CCCCOC(=O)N(C)SN(C)C(=O)Oc1cccc2c1OC(C)(C)C2 [Furathiocarb] | 12.8 min
Cc1onc(-c2c(Cl)cccc2Cl)c1C(=O)NC1C(=O)N2C1SC(C)(C)C2C(=O)O (configuration not stated) [Dicloxacillin] | 10.4 min
CCCCOC(=O)C(C)Oc1ccc(Oc2ccc(C(F)(F)F)cn2)cc1 (configuration not stated) [Fluaziflop-P-butyl] | 13.1 min
COC(=O)C(C)Oc1ccc(Oc2ncc(C(F)(F)F)cc2Cl)cc1 (configuration not stated) [Haloxyfop-methyl] | 12.6 min
CCOP(=O)(SC(C)CC)N1CCSC1=O (configuration not stated) [Fosthiazate] | 8.33 min
COC(=O)C(C)N(C(=O)c1ccccc1)c1ccc(F)c(Cl)c1 (configuration not stated) [Flamprop-methyl] | 10.7 min
CCCCC1C(=O)N(c2ccccc2)N(c2ccccc2)C1=O [Phenylbutazone] | 11.6 min
CNC(=O)ON=CC(C)(C)SC [Aldicarb] | 6.2 min
COc1nc(C)nc(NC(=O)NS(=O)(=O)c2ccccc2Cl)n1 [Chlorsulfuron] | 7.94 min
FC(F)C(F)(F)OCC(Cn1cncn1)c1ccc(Cl)cc1Cl (configuration not stated) [Tetraconazole] | 11.6 min
CCN(CC)c1nc(C)cc(OP(=S)(OC)OC)n1 [Pirimiphos-methyl] | 12.4 min
CCCC1CC(C(=O)NC(C(C)O)C2OC(SC)C(O)C(O)C2O)N(C)C1 (configuration not stated) [Lincomycin] | 3.56 min
